Measured values taken from patent US12655116B2, “Substituted isophthalic acid diamides” (Bayer Aktiengesellschaft, priority 2020, dated 2026).

Tests used:
POLCO = assay: Pre-emergence herbicidal action against POLCO; type: in vivo, Polygonum convolvulus; settings: dosage 80 g/ha
In short: (§1)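 Sandy loam pots, seeds covered with soil, then surface-treated with WP or EC formulations at 600–800 l/ha water plus 0.2% wetting agent. Greenhouse, 3 weeks. Percent damage vs untreated controls.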

VIOTR = assay: Pre-emergence herbicidal action against VIOTR; type: in vivo, Viola tricolor
In short: as §1

LOLRI = assay: Pre-emergence herbicidal action against LOLRI; type: in vivo, Lolium rigidum; settings: 80 g/ha
In short: as §1

PHBPU [1] = assay: Pre-emergence herbicidal action against PHBPU; type: in vivo, Pharbitis purpurea
In short: as §1

AVEFA = assay: Pre-emergence herbicidal action against AVEFA; type: in vivo, Avena fatua
In short: as §1

VERPE [2] = assay: Pre-emergence herbicidal action against VERPE; type: in vivo, Veronica persica; settings: dosage 80 g/ha
In short: as §1

SETVI [3] = assay: Pre-emergence herbicidal action against SETVI; type: in vivo, Setaria viridis
In short: as §1

ALOMY [4] = assay: Pre-emergence herbicidal action against ALOMY; type: in vivo, Alopecurus myosuroides
In short: as §1

MATIN [5] = assay: Post-emergence herbicidal action against MATIN; type: in vivo, Matricaria inodora
In short: (§2)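 Herbicidal action is a visual percentage rating (0% = as untreated control, 100% = plants dead) made roughly 3 weeks after treatment. Plants were grown in sandy loam in the greenhouse and treated at the one-leaf stage, 2 to 3 weeks post-sowing. Treatment was a foliar spray of wettable-powder or emulsion-concentrate formulations at 600 to 800 l/ha water plus 0.2% wetting agent.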

MATIN [6] = assay: Pre-emergence herbicidal action against MATIN; type: in vivo, Matricaria inodora
In short: as §1

DIGSA [7] = assay: Pre-emergence herbicidal action against DIGSA; type: in vivo, Digitaria sanguinalis
In short: as §1

DIGSA [8] = assay: Post-emergence herbicidal action against DIGSA; type: in vivo, Digitaria sanguinalis; settings: Digitaria sanguinalis, 504 h, 20 g/ha
In short: as §2

AMARE [9] = assay: Pre-emergence herbicidal action against AMARE; type: in vivo, Amaranthus retroflexus
In short: as §1

VERPE [10] = assay: Post-emergence herbicidal action against VERPE; type: in vivo, Veronica persica; settings: 20 g/ha
In short: as §2

ALOMY [11] = assay: Post-emergence herbicidal action against ALOMY; type: in vivo, Alopecurus myosuroides; settings: visual assessment about 3 weeks after treatment vs untreated controls
In short: as §2

ABUTH [12] = assay: Pre-emergence herbicidal action against ABUTH; type: in vivo, Abutilon theophrasti
In short: as §1

SETVI [13] = assay: Post-emergence herbicidal action against SETVI; type: in vivo, Setaria viridis; settings: Setaria viridis, 504 h, dosage 20 g/ha
In short: as §2

ABUTH [14] = assay: Post-emergence herbicidal action against ABUTH; type: in vivo, Abutilon theophrasti; settings: visual assessment about 3 weeks after treatment vs untreated controls
In short: as §2

ECHCG [15] = assay: Post-emergence herbicidal action against ECHCG; type: in vivo, Echinochloa crus-galli
In short: as §2

PHBPU [16] = assay: Post-emergence herbicidal action against PHBPU; type: in vivo, Pharbitis purpurea
In short: as §2

ECHCG [17] = assay: Pre-emergence herbicidal action against ECHCG; type: in vivo, Echinochloa crus-galli
In short: as §1

AMARE [18] = assay: Post-emergence herbicidal action against AMARE; type: in vivo, Amaranthus retroflexus; settings: 20 g/ha, visual assessment about 3 weeks after treatment, 100% = plants have died, 0% = like control plants
In short: as §2

[19] = Tripleurospermum inodorum, 504 h, dosage 20 g/ha
[20] = 20 g/ha, scored visually after 3 weeks, 100% = plants have died, 0% = like control plants
[21] = 80 g/ha, scored visually after 3 weeks vs untreated controls (100% = plants have died, 0% = like control plants)

CCNC(=O)c1c(I)ccc(C(=O)Nc2nnnn2CC)c1Cl [Example 2-196]
pest or weed control at 80 g/ha (POLCO; Fallopia convolvulus, 504 h): 90%
pest or weed control at 20 g/ha (VIOTR; Viola tricolor, 504 h, dosage 20 g/ha): 90%
pest or weed control at 80 g/ha (VIOTR; Viola tricolor, 504 h, dosage 80 g/ha): 100%
pest or weed control at 80 g/ha (LOLRI; Lolium rigidum, 504 h): 100%
pest or weed control at 20 g/ha (PHBPU [1]; Ipomoea purpurea, 504 h, dosage 20 g/ha): 80%
pest or weed control at 80 g/ha (PHBPU [1]; Ipomoea purpurea, 504 h, dosage 80 g/ha): 90%
pest or weed control at 80 g/ha (AVEFA; Avena fatua, 504 h, 80 g/ha, pre-emergence): 100%
pest or weed control at 20 g/ha (AVEFA; Avena fatua, pre-emergence, 504 h, 20 g/ha, scored visually after 3 weeks, 100% = plants have died, 0% = like control plants): 80%
pest or weed control at 80 g/ha (VERPE [2]; Veronica persica, 504 h): 80%
pest or weed control at 20 g/ha (SETVI [3]; Setaria viridis, 504 h, dosage 20 g/ha): 90%
pest or weed control at 80 g/ha (SETVI [3]; Setaria viridis, 504 h, dosage 80 g/ha): 100%
pest or weed control at 80 g/ha (ALOMY [4]; Alopecurus myosuroides, 504 h, 80 g/ha, pre-emergence, scored visually after 3 weeks vs untreated controls (100% = plants have died, 0% = like control plants)): 100%
pest or weed control at 20 g/ha (ALOMY [4]; Alopecurus myosuroides, pre-emergence, 504 h, 20 g/ha, scored visually after 3 weeks, 100% = plants have died, 0% = like control plants): 90%
pest or weed control at 5 g/ha (MATIN [5]; Tripleurospermum inodorum, 504 h, dosage 5 g/ha): 80%
pest or weed control at 20 g/ha (MATIN [5]; [19]): 90%
pest or weed control at 20 g/ha (MATIN [6]; [19]): 100%
pest or weed control at 80 g/ha (MATIN [6]; Tripleurospermum inodorum, 504 h, dosage 80 g/ha): 100%
pest or weed control at 20 g/ha (DIGSA [7]; Digitaria sanguinalis, 504 h, dosage 20 g/ha): 90%
pest or weed control at 80 g/ha (DIGSA [7]; Digitaria sanguinalis, 504 h, dosage 80 g/ha): 100%
pest or weed control at 20 g/ha (DIGSA [8]): 90%
pest or weed control at 20 g/ha (AMARE [9]; Amaranthus retroflexus, 504 h, 20 g/ha, scored visually after 3 weeks vs untreated controls, 100% = plants have died, 0% = like control plants): 100%
pest or weed control at 80 g/ha (AMARE [9]; Amaranthus retroflexus, 504 h, 80 g/ha, scored visually after 3 weeks vs untreated controls, 100% = plants have died, 0% = like control plants): 100%
pest or weed control at 20 g/ha (VERPE [10]; Veronica persica, 504 h): 80%
pest or weed control at 20 g/ha (ALOMY [11]; Alopecurus myosuroides, 504 h, dosage 20 g/ha): 90%
pest or weed control at 80 g/ha (ABUTH [12]; Abutilon theophrasti, 504 h, 80 g/ha, scored visually after 3 weeks vs untreated controls (100% = plants have died, 0% = like control plants)): 100%
pest or weed control at 20 g/ha (ABUTH [12]; Abutilon theophrasti, 504 h, dosage 20 g/ha, scored visually after 3 weeks vs untreated controls, 100% = plants have died, 0% = like control plants, read-out: Pre-emergence action against ABUTH (herbicidal activity in percent)): 100%
pest or weed control at 20 g/ha (SETVI [13]): 100%
pest or weed control at 20 g/ha (ABUTH [14]; Abutilon theophrasti, 504 h, dosage 20 g/ha): 100%
pest or weed control at 20 g/ha (ECHCG [15]; Echinochloa crus-galli, 504 h, dosage 20 g/ha): 80%

CCn1nnnc1NC(=O)c1ccc(C(F)(F)F)c(C(=O)NC2CCC2)c1C [Example 2-42]
Pre-emergence action against POLCO in % (POLCO): 80%
Pre-emergence action against VIOTR in % (VIOTR; dosage 20 g/ha): 100%
Pre-emergence action against VIOTR in % (VIOTR; dosage 80 g/ha): 100%
Pre-emergence action against LOLRI in % (LOLRI): 80%
Pre-emergence action against PHBPU in % (PHBPU [1]; dosage 20 g/ha): 80%
Pre-emergence action against PHBPU in % (PHBPU [1]; dosage 80 g/ha): 90%
Post-emergence action against PHBPU in % (PHBPU [16]; dosage 5 g/ha): 90%
Post-emergence action against PHBPU in % (PHBPU [16]; dosage 20 g/ha): 90%
Pre-emergence action against AVEFA (AVEFA; [20]): 80%
Pre-emergence action against AVEFA in % (AVEFA; 80 g/ha, pre-emergence): 90%
Pre-emergence action against VERPE in % (VERPE [2]): 90%
Pre-emergence action against SETVI in % (SETVI [3]; dosage 20 g/ha): 80%
Pre-emergence action against SETVI in % (SETVI [3]; dosage 80 g/ha): 100%
Pre-emergence action against ALOMY (ALOMY [4]; [20]): 80%
Pre-emergence action against ALOMY (herbicidal activity) (ALOMY [4]; 80 g/ha, pre-emergence, scored visually after 3 weeks vs untreated controls (100% = plants have died, 0% = like control plants)): 90%
Post-emergence action against MATIN in % (MATIN [5]; dosage 20 g/ha): 80%
Pre-emergence action against MATIN in % (MATIN [6]; dosage 20 g/ha): 100%
Pre-emergence action against MATIN in % (MATIN [6]; dosage 80 g/ha): 100%
Pre-emergence action against DIGSA in % (DIGSA [7]; dosage 20 g/ha): 100%
Pre-emergence action against DIGSA in % (DIGSA [7]; dosage 80 g/ha): 100%
Pre-emergence action against AMARE in % (AMARE [9]; 20 g/ha, scored visually after 3 weeks vs untreated controls, 100% = plants have died, 0% = like control plants): 100%
Pre-emergence action against AMARE in % (AMARE [9]; [21]): 100%
Post-emergence action against VERPE in % (VERPE [10]): 90%
Post-emergence action against ALOMY in % (ALOMY [11]; dosage 5 g/ha): 90%
Post-emergence action against ALOMY in % (ALOMY [11]; dosage 20 g/ha): 100%
Pre-emergence action against ECHCG in % (ECHCG [17]; 20 g/ha): 90%
Pre-emergence action against ECHCG in % (ECHCG [17]; 80 g/ha): 100%
Pre-emergence action against ABUTH (herbicidal activity) (ABUTH [12]; [21]): 100%
Pre-emergence action against ABUTH (herbicidal activity in percent) (ABUTH [12]; dosage 20 g/ha, scored visually after 3 weeks vs untreated controls, 100% = plants have died, 0% = like control plants): 100%
Post-emergence action against ABUTH in % (ABUTH [14]; dosage 5 g/ha): 80%
Post-emergence action against ABUTH in % (ABUTH [14]; dosage 20 g/ha): 90%
Post-emergence action against ECHCG in % (ECHCG [15]; dosage 5 g/ha): 90%
Post-emergence action against ECHCG in % (ECHCG [15]; dosage 20 g/ha): 100%
Post-emergence action at 20 g/ha against AMARE in % (AMARE [18]): 100%
